Patent US20100190719A1, “PEPTIDES AS ANTIMICROBIAL AGENTS TOWARDS CAMPYLOBACTER SPP” (priority 2007, published 2010)

Key:
[1] = tested on: C. jejuni strain C338; assay: microdilution susceptibility test, inhibition of growth of C. jejuni in vitro; format: cell-based, Campylobacter jejuni; conditions: for % inhibition of growth: C. jejuni strain C338, phage-displayed peptide
Experimental: Representative affinity-selected phage peptides were tested for their ability to inhibit the growth of C. jejuni strains in vitro. Each phage clone was amplified by E. coli infection and twice purified by PEG precipitation and resuspended in TBS buffer (pH 7.5). Phage concentrations were calculated as […] using the ultraviolet (UV) absorbance measurements on a spectrophotometer (Smith & Scott, 1993). […] In brief: each of the C. jejuni strains was resuspended to an OD595 of 0.2 in Nutrient Broth and then diluted to 10^4-10^5 CFU/mL in Nutrient Broth containing Campylobacter growth supplement. […] A microaerophilic environment was provided by GasPak E2 Campy Pouches (BD Biosciences). After 24-48 h at 37° C. without shaking, the optical densities of the bacterial cultures were measured at OD595 nm in a plate reader (Victor2, Perkin Elmer).
(§1) The number of viable bacteria in the 96 well plates was determined by performing colony counts on the diluted inoculum and plating onto blood agar plates. Colony counts on blood agar plates were also used to determine the initial inoculum of bacteria used in the assay. A Gram Stain Kit was used to check the morphology of C. jejuni after incubation with the phage peptides.

[2] = tested on: C. jejuni strain C338; assay: morphology of C. jejuni after incubation with phage peptides (Gram stain); format: cell-based, Campylobacter jejuni; conditions: normal morphology is spiral-shaped
Experimental: The morphology has changed to thread-shaped. • B. Strain C338 incubated with unselected phage library showing the normal spiral-shaped morphology • C.
as §1

Sequence | % inhibition of growth [1] | morphology of C. jejuni after incubation with phage-displayed peptide [2] | also measured
TGSGLYLHQMVYLYQ (f88-4/15-mer peptide phage-display library) [CP3/2] | 92% |  | inhibition of growth of C. jejuni ([1]; bacterial inoculum 1.6×10^5 CFU/mL): 87%
GRFLIRVTSSPLGPD (f88-4/15-mer peptide phage-display library) [CP3/1] | 96.7% | thread-shaped | inhibition of growth of C. jejuni ([1]; initial bacterial inoculum 2.8×10^4 CFU/mL): 97%; inhibition of growth of C. jejuni ([1]; initial bacterial inoculum 2.8×10^4 CFU/mL as printed (second value for CP3/1)): 89%
FLIDSPLASIGPTSM (f88-4/15-mer peptide phage-display library) [CP3/3] | 99.3% |  | 
VPESIHKASLVCYRF (f88-4/15-mer peptide phage-display library) [BP3/5] |  | coccoid shaped | 
TCNLSDYTLPRARVL (f88-4/15-mer peptide phage-display library) [BT3/4] | 60% |  | inhibition of growth of C. jejuni in vitro (in words) ([1]; bacterial concentration of 1×10^4 CFU/mL): inhibited the growth
